Experimental data: ChEMBL document CHEMBL1148724, “Design, synthesis, and biological activity of 5,10-dihydro-dibenzo[b,e][1,4]diazepin-11-one-based potent and selective Chk-1 inhibitors” (J Med Chem, 2007)

target: T1, Serine/threonine-protein kinase Chk1 (Homo sapiens, UniProt O14757); experiment: Inhibition of human recombinant Chk1
T1 sequence (O14757 whole entry): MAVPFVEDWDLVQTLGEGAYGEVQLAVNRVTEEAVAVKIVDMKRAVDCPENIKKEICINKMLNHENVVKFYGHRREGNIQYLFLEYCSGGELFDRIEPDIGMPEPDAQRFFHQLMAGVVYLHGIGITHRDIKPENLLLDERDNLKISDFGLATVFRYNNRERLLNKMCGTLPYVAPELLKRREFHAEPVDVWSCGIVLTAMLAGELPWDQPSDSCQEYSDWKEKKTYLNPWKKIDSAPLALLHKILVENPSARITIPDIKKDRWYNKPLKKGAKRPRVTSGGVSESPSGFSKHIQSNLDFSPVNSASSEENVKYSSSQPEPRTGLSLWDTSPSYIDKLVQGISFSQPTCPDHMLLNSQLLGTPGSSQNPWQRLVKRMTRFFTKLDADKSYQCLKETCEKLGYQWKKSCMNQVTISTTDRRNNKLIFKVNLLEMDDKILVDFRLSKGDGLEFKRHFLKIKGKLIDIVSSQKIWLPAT

Compound | IC50 [nM]
COc1cc(-c2ccc3c(c2)Nc2ccccc2NC3=O)ccc1C#N | 33
CCOc1cccc(-c2ccc3c(c2)Nc2ccccc2NC3=O)c1 | > 10000
CC(=O)c1cccc(-c2ccc3c(c2)Nc2ccccc2NC3=O)c1 | 2100
CC(=O)c1ccccc1-c1ccc2c(c1)Nc1ccccc1NC2=O | 8000
N#Cc1cccc(-c2ccc3c(c2)Nc2ccccc2NC3=O)c1 | 970
COc1cc(-c2ccc3c(c2)Nc2ccccc2NC3=O)ccc1[N+](=O)[O-] | 10
COc1cc(-c2ccc3c(c2)C(=O)Nc2ccccc2N3)ccc1O | > 10000
COc1ccccc1-c1ccc2c(c1)Nc1ccccc1NC2=O | 3600
COc1cc(-c2ccc3c(c2)Nc2ccccc2NC3=O)ccc1Cl | 91
COc1cc(-c2ccc3c(c2)Nc2ccccc2NC3=O)ccc1C(N)=O | 88
O=C1Nc2ccccc2Nc2cc(-c3ccccc3)ccc21 | > 10000
O=C1Nc2ccccc2S(=O)(=O)c2ccccc21 | > 50000
O=c1[nH]c2ccccc2c(=O)c2ccccc12 | > 50000
COc1cc(-c2ccc3c(c2)Nc2ccccc2NC3=O)ccc1C(C)=O | 48
COc1cc(-c2ccc3c(c2)Nc2ccccc2NC3=O)ccc1O | 82
O=C1Nc2ccccc2C(O)c2ccccc21 (stereo not given) | > 50000
COC(=O)c1ccc(-c2ccc3c(c2)Nc2ccccc2NC3=O)cc1OC | 53
N#Cc1ccc(-c2ccc3c(c2)Nc2ccccc2NC3=O)cc1 | > 10000
COc1cccc(-c2ccc3c(c2)Nc2ccccc2NC3=O)c1 | 500
CC(=O)c1ccc(-c2ccc3c(c2)Nc2ccccc2NC3=O)cc1 | > 10000
